We go through 28 compounds from patent publication US9085555B2, “Complement pathway modulators and uses thereof” (priority 2011, dated 2015).

Molecules are shown by their SMILES. Structures can show the parent of a compound that is named as a salt.

Factor D, sequence (P00746 26-253): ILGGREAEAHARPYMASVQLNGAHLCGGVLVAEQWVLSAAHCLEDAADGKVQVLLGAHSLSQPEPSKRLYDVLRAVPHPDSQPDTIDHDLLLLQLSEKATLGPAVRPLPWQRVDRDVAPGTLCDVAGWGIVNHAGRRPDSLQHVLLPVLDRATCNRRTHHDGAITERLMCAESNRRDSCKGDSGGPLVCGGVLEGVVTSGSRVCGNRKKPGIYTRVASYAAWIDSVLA

The assay addresses Factor D (Homo sapiens (Human), UniProt P00746). The assay can be described thus: biochemical. In kind it is biochemical. Particulars: read-out: IC50.
A word on the IC50: it is the point on the concentration scale where inhibition reaches its midpoint. On to `COC[C@@H](NC(=O)[C@@H]1C[C@H]2C[C@H]2N1C(=O)Cc1cn(C(N)=O)c2ccccc12)c1cccc(Cl)c1F` [Example 464, 3-(2-{(1R,3S,5R)-3-[(S)-1-(3-Chloro-2-fluoro-phenyl)-2-methoxy-ethylcarbamoyl]-2-aza-bicyclo[3.1.0]hex-2-yl}-2-oxo-ethyl)-indole-1-carboxylic acid amide], for which the IC50 came out at 254 nM.
As to `NC(=O)n1cc(NC(=O)N2C[C@H](F)C[C@H]2C(=O)NCc2ccnc(C(F)(F)F)c2F)c2ccccc21` [Example 232, (2S,4R)-4-Fluoro-pyrrolidine-1,2-dicarboxylic acid 1-[(1-carbamoyl-1H-indol-3-yl)-amide] 2-[(3-fluoro-2-trifluoromethyl-pyridin-4-ylmethyl)-amide]], the IC50 came out at 989 nM.
Take `NC(=O)n1cc(NC(=O)N2C[C@@H](N)C[C@H]2C(=O)NCc2ccc(OC(F)(F)F)cc2)c2ccccc21` [Example 46, (2S,4S)-4-Amino-pyrrolidine-1,2-dicarboxylic acid 1-[(1-carbamoyl-1H-indol-3-yl)-amide] 2-(4-trifluoromethoxy-benzylamide)]: the IC50 came to 22800 nM.
`NC(=O)n1cc(NC(=O)N2[C@@H]3C[C@@H]3C[C@H]2C(=O)NCc2ccccc2F)c2cc(O)ccc21` [Example 372, (1R,3S,5R)-2-Aza-bicyclo[3.1.0]hexane-2,3-dicarboxylic acid 2-[(1-carbamoyl-5-hydroxy-1H-indol-3-yl)-amide]3-(2-fluoro-benzylamide)]: the IC50 came to 45 nM.
The same measure for `NC(=O)c1cn(CC(=O)N2CCS[C@H]2C(=O)NCc2cccc(Cl)c2F)c2ccccc12` [Example 567, 1-{2-[(S)-2-(3-Chloro-2-fluoro-benzylcarbamoyl)-thiazolidin-3-yl]-2-oxo-ethyl}-1H-indole-3-carboxylic acid amide]: 293 nM; for `NC[C@@]1(F)C[C@@H](C(=O)Nc2cccc(OC(F)(F)F)c2)N(C(=O)Nc2cn(C(N)=O)c3ccccc23)C1` [Example 414, (2S,4S)-4-Aminomethyl-4-fluoro-pyrrolidine-1,2-dicarboxylic acid 1-[(1-carbamoyl-1H-indol-3-yl)-amide]2-[(3-trifluoromethoxy-phenyl)-amide]]: 311 nM; for `NC(=O)c1cn(CC(=O)N2C[C@H](F)C[C@H]2C(=O)NCc2cccc(Cl)c2F)c2ccccc12` [Example 476, 1-{2-[(2S,4R)-2-(3-Chloro-2-fluoro-benzylcarbamoyl)-4-fluoro-pyrrolidin-1-yl]-2-oxo-ethyl}-1H-indole-3-carboxylic acid amide]: 33 nM.
The same measure for `COC(=O)c1ccc2c(C(C)=O)cn(CC(=O)N3[C@@H]4C[C@@H]4C[C@H]3C(=O)NCc3cccc(Cl)c3F)c2n1` [Example 689, 3-Acetyl-1-{2-[(1R,3S,5R)-3-(3-chloro-2-fluoro-benzylcarbamoyl)-2-aza-bicyclo[3.1.0]hex-2-yl]-2-oxo-ethyl}-1H-pyrrolo[2,3-b] pyridine-6-carboxylic acid methyl ester]: 156 nM.
On to `NC(=O)n1cc(NC(=O)N2CCS[C@H]2C(=O)Nc2cc(Br)cc(C(=O)O)c2)c2ccccc21` [Example 341, 3-Bromo-5-{[(S)-3-(1-carbamoyl-1H-indol-3-ylcarbamoyl)-thiazolidine-2-carbonyl]-amino}-benzoic acid], for which the IC50 stood at 95 nM.
For `COc1ccc2c(c1)c(C(C)=O)cn2CC(=O)N1C[C@H](F)[C@@H](OC)[C@H]1C(=O)NCc1cccc(Cl)c1F` [Example 485, (2S,3S,4S)-1-[2-(3-Acetyl-5-methoxy-indol-1-yl)-acetyl]-4-fluoro-3-methoxy-pyrrolidine-2-carboxylic acid 3-chloro-2-fluoro-benzylamide] the value was 15 nM.
For `NC(=O)n1cc(NC(=O)N2CC[C@@H](O)[C@H]2C(=O)NCc2cccc(Cl)c2F)c2ccccc21` [Example 213, (2S,3R)-3-Hydroxy-pyrrolidine-1,2-dicarboxylic acid 1-[(1-carbamoyl-1H-indol-3-yl)-amide] 2-(3-chloro-2-fluoro-benzylamide)] the value was 12 nM; for `NC(=O)n1cc(NC(=O)N2C[C@H](F)C[C@H]2C(=O)NCc2cncc(C(F)(F)F)c2)c2ccccc21` [Example 305, (2S,4R)-4-Fluoro-pyrrolidine-1,2-dicarboxylic acid 1-[(1-carbamoyl-1H-indol-3-yl)-amide] 2-[(5-trifluoromethyl-pyridin-3-ylmethyl)-amide]], 1350 nM.
As for `NC(=O)n1cc(NC(=O)N2C[C@H](F)C[C@H]2C(=O)NCc2ccccc2C(=O)O)c2ccccc21` [Example 23, 2-({[(2S,4R)-1-(1-Carbamoyl-1H-indol-3-ylcarbamoyl)-4-fluoro-pyrrolidine-2-carbonyl]-amino}-methyl)-benzoic acid], the IC50 turned out to be 1850 nM.
Regarding `NC(=O)c1nn(CC(=O)N2C[C@H](F)C[C@H]2C(=O)Nc2cccc(Br)n2)c2ccccc12` [Example 739, 1-{2-[(2S,4R)-2-(6-Bromo-pyridin-2-ylcarbamoyl)-4-fluoro-pyrrolidin-1-yl]-2-oxo-ethyl}-1H-indazole-3-carboxylic acid amide], the IC50 was determined as 23 nM.
For `NC(=O)c1nn(CC(=O)N2[C@@H]3C[C@@H]3C[C@H]2C(=O)Nc2cccc(Cl)c2F)c2ccccc12` [Example 731, 1-{2-[(1R,3S,5R)-3-(3-Chloro-2-fluoro-phenylcarbamoyl)-2-aza-bicyclo[3.1.0]hex-2-yl]-2-oxo-ethyl}-1H-indazole-3-carboxylic acid amide] the value was 53 nM; for `CC(=O)c1cn(CC(=O)N2C[C@H](F)C[C@H]2C(=O)NCc2cccc(Cl)c2F)c2cc(OCc3nn[nH]n3)ccc12` [Example 586, (2S,4R)-1-{2-[3-Acetyl-6-(1H-tetrazol-5-ylmethoxy)-indol-1-yl]-acetyl}-4-fluoro-pyrrolidine-2-carboxylic acid 3-chloro-2-fluoro-benzylamide], 132 nM; for `CC(=O)c1cn(CC(=O)N2[C@@H]3C[C@@H]3C[C@H]2C(=O)Nc2cccc(Br)n2)c2ccncc12` [Example 751, (1R,3S,5R)-2-[2-(3-Acetyl-pyrrolo[3,2-c]pyridin-1-yl)-acetyl]-2-aza-bicyclo[3.1.0] hexane-3-carboxylic acid (6-bromo-pyridin-2-yl)-amide], 81 nM.
For `NC(=O)c1nn(CC(=O)N2[C@@H]3C[C@@H]3C[C@H]2C(=O)Nc2cccc(C(F)(F)F)n2)c2cnccc12` [Example 732, 1-{2-Oxo-2-[(1R,3S,5R)-3-(6-trifluoromethyl-pyridin-2-ylcarbamoyl)-2-aza-bicyclo [3.1.0]hex-2-yl]-ethyl}-1H-pyrazolo[3,4-c]pyridine-3-carboxylic acid amide] the value was 44 nM.
For `CC(=O)c1cn(CC(=O)N2C[C@](C)(F)C[C@H]2C(=O)NCc2cccc(Cl)c2F)c2cnccc12` [Example 482, (2S,4R)-1-[2-(3-Acetyl-pyrrolo[2,3-c]pyridin-1-yl)-acetyl]-4-fluoro-4-methyl-pyrrolidine-2-carboxylic acid 3-chloro-2-fluoro-benzylamide] the value was 188 nM.
Consider `NC(=O)n1cc(NC(=O)N2CCC[C@H]2C(=O)Nc2cccc(S(N)(=O)=O)c2)c2ccccc21` [Example 233, (S)-Pyrrolidine-1,2-dicarboxylic acid 1-[(1-carbamoyl-1H-indol-3-yl)-amide] 2-[(3-sulfamoyl-phenyl)-amide]], for which the IC50 is 850 nM.
The same measure for `COC(=O)c1ccc2c(C(C)=O)cn(CC(=O)N3C[C@H](F)C[C@H]3C(=O)NCc3cccc(Cl)c3F)c2c1` [Example 542, 3-Acetyl-1-{2-[(2S,4R)-2-(3-chloro-2-fluoro-benzylcarbamoyl)-4-fluoro-pyrrolidin-1-yl]-2-oxo-ethyl}-1H-indole-6-carboxylic acid methyl ester]: 19 nM; for `NC(=O)c1cn(CC(=O)N2C[C@H](F)C[C@H]2C(=O)NCc2cccc(Cl)c2F)c2ccc(Cl)cc12` [Example 488, 5-Chloro-1-{2-[(2S,4R)-2-(3-chloro-2-fluoro-benzylcarbamoyl)-4-fluoro-pyrrolidin-1-yl]-2-oxo-ethyl}-1H-indole-3-carboxylic acid amide]: 250 nM.
For `CC(=O)NC[C@H]1CC[C@@H](C(=O)Nc2cccc(OC(F)(F)F)c2)N1C(=O)Nc1cn(C(N)=O)c2ccccc12` [Example 139, (2S,5R)-5-(Acetylamino-methyl)-pyrrolidine-1,2-dicarboxylic acid 1-[(1-carbamoyl-1H-indol-3-yl)-amide] 2-[(3-trifluoromethoxy-phenyl)-amide]] the value was 1500 nM.
The same measure for `NC(=O)n1cc(NC(=O)N2C[C@@H](N)C[C@H]2C(=O)NCc2ccc(-c3ccc(Cl)s3)s2)c2ccccc21` [Example 42, (2S,4S)-4-Amino-pyrrolidine-1,2-dicarboxylic acid 1-[(1-carbamoyl-1H-indol-3-yl)-amide] 2-[(5′-chloro-[2,2′]bithiophenyl-5-ylmethyl)-amide]]: 2850 nM; for `CO[C@H]1[C@@H](C(=O)Nc2cccc(OC(F)(F)F)c2F)N(C(=O)Cn2nc(C(N)=O)c3ccncc32)C[C@@H]1F` [Example 629, 1-{2-[(2S,3S,4S)-4-Fluoro-2-(2-fluoro-3-trifluoromethoxy-phenylcarbamoyl)-3-methoxy-pyrrolidin-1-yl]-2-oxo-ethyl}-1H-pyrazolo[3,4-c]pyridine-3-carboxylic acid amide trifluoroacetate]: 17 nM; for `CO[C@H]1[C@@H](C(=O)NCc2cccc(Cl)c2F)N(C(=O)Cn2cc(C(C)=O)c3ccncc32)C[C@@H]1F` [Example 681, (2S,3S,4S)-1-[2-(3-Acetyl-pyrrolo[2,3-c]pyridin-1-yl)-acetyl]-4-fluoro-3-methoxy-pyrrolidine-2-carboxylic acid 3-chloro-2-fluoro-benzylamide]: 19 nM.
Turning to `NC(=O)n1cc(NC(=O)N2C3CC3C[C@H]2C(=O)NCc2cccc(Cl)c2F)c2ccccc21` (stereo partly drawn) [Example 166, (1R,3S,5R)-2-Aza-bicyclo[3.1.0]hexane-2,3-dicarboxylic acid 2-[(1-carbamoyl-1H-indol-3-yl)-amide] 3-(3-chloro-2-fluoro-benzylamide)], the IC50 came to 3 nM.
The same measure for `NC(=O)n1cc(NC(=O)N2NCC[C@@H]2C(=O)NCc2cccc(Cl)c2F)c2ccccc21` [Example 433]: 1790 nM.
